Data on twelve compounds can be found in US6355633B1, “Aryl sulfonic acids and derivatives as FSH antagonists” (American Home Products Corporation, priority 1999, dated 2002).

The structures appear in SMILES notation.

Assay [1] concerns FSH-induced changes in ovarian follicular maturation. Nature of the assay: Immature Rat Test Procedure (FSH-induced organ wet weight). Format: in vivo. The conditions noted are these: immature rats, twice daily for three days with half-maximal dose of hFSH; for IC50 (mg/Kg) ovaries: ovarian wet weight; for IC50 (mg/Kg) uterus: uterine wet weight. The procedure: Immature Rat Test Procedure
In order to assess the ability of compounds to affect FSH-induced changes in ovarian follicular maturation in vivo, immature rats (18 days of age) are treated twice daily for three days with compound in the presence of a half-maximal dose of purified human FSH. Animals are treated via the i.p. or p.o. routes. On the fourth day following treatment, animals are euthanized and the ovaries, uterus and spleen (the spleen is a control tissue that should not respond to FHS stimulation) collected for wet weight determination. In each experiment animals treated with vehicle alone or FSH alone are used as negative and positive controls, respectively.

In assay [2] the target is T1, FSH receptor (Homo sapiens, UniProt P23945).
T1 sequence (P23945 18-695): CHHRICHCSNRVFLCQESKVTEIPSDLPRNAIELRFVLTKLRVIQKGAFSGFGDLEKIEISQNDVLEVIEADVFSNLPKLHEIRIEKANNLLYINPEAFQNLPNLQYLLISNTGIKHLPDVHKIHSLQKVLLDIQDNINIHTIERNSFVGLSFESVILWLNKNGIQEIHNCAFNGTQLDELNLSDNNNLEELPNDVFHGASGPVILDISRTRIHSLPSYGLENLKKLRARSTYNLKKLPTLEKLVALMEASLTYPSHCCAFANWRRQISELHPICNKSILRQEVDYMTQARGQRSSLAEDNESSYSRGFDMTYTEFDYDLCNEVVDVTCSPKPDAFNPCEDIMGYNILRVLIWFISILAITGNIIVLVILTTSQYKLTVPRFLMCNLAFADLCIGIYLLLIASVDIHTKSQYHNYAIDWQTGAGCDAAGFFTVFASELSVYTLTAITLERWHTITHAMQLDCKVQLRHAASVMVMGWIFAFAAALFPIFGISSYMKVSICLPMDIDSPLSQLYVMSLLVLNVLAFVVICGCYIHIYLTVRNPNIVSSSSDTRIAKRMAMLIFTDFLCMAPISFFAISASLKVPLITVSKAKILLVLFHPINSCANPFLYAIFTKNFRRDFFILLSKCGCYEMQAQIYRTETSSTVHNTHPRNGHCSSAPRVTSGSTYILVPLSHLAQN
Briefly: FSH Receptor Radioligand Membrane Binding Standard Pharmacological Test Procedure. More on the design: expressed in transfected cells. The conditions noted are these: [125I]FSH binding to membranes of CHO cells stably transfected with the human FSH receptor. Summed up:
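Membranes from CHO cells stably expressing human FSH receptor; compounds pre-incubated 15 min at room temperature, then [125I]FSH added (diluted to 200 pM before addition) for 2 h at room temperature in pH 7.2 Tris buffer with protease inhibitors and BSA. Bound radioactivity after filtration counted by gamma counter; non-specific binding defined with unlabelled human FSH.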

Assay [3] has as its target T1, FSH receptor. Nature of the assay: In Vitro Bio-test Procedure of Agonists and Antagonists to the FSH Receptor (cAMP accumulation in CHO-3D2 cells). Further details: expressed in transfected cells; host or cells: CHO-3D2 cells. The format is cell-based. As for the experimental part:
In Vitro Bio-test Procedure of Agonists and Antagonists to the FSH Receptor
The compounds were subsequently diluted in sterile procedure medium (Optimem (Gibco/BRL, Grand Island, N.Y.)/0.1% BSA) prior to use in the bio-procedure.
Preparation of CHO-3D2 Cells; CHO-3D2 cells were plated into 96-well Nunc tissue culture plates at a density of 30,000 cells/well in DMEM/F12 medium (Gibco/BRL, Grand Island, N.Y.) supplemented with 5% Fetal Bovine Serum (Hyclone, Fetal Clone II), 2 mM L-glutamine and penicillin/streptomycin (100 U/mL). Cells were plated one day prior to performing the bio-procedure.
Procedure: On the day of procedure, the wells were washed two times with 100 ul/well of pre-warmed (37 deg C.) procedure medium. After aspirating the second wash, an additional 100 ul of procedure medium was added to each well and the cells pre-incubated for 30-45 minutes at 37 deg C. In a humidified incubator with 5%CO2/95% air. The cells were then challenged with varying dilutions of the test substance(s) in a 50 ul total incubation volume in procedure medium for 30 minutes at 37 deg C. in the humidified incubator. The challenge was terminated by the addition of 50 ul of 0.2 N HCl to each well. CAMP accumulation in the medium was measured by radioimmunoassay.
Test Groups: In the 96-well format, the plate is organized into 12 columns each containing 8 rows of wells. The plate was split in half to test a single compound in both agonist and antagonist mode on the same plate.
For agonist mode, compounds were tested using 5 different concentrations in a dose-response paradigm using one column as a control (challenge medium alone) in agonist mode.
The 96-well format allowed for the capability to test 4 columns of compound, using one of the remaining columns for negative control (challenge medium alone) and the other remaining column for ampositive control (ED20 of FSH alone).
The doses chosen to test each compound were extrapolated from the initial screening process (receptor binding data). Along with the test compounds, FSH was run in agonist mode using doses ranging from 0.1 ng/mL-1000 ng/mL as a postive control. Cytotoxicity of the compounds were screened by treating cells with the highest concentration of each compound used in the cAMP procedure for 30 minutes followed by washing of the cells 2 times with 100 ul PBS. The cells were then incubated for 5 min at 37 deg C. in the presence of 50 ug/mL Fluorescein diacetate and 20 ug/mL Propidium iodide in 100 ul PBS. The cells were washed two times with 100 ul PBS followed by examination of the cells under a fluorescence microscope using a 490 nm filter. Viable cells stained green throughout, while dead cells had red fluorescent nuclei.
Analysis of Results: cAMP accumulation was expressed as fmol/mL. […] Data were analyzed statistically by analysis of variance and significant differences between treatments and control determined by Dunnett's test. In antagonist mode, a Duncan's test was used.
Reference Compounds: Test compounds were compared to the effect of purified or recombinant human FSH.
In general terms: cAMP levels reflect the balance of adenylyl cyclase and phosphodiesterase activity.

For `CSc1ccc(C(=O)Nc2ccc(/C=C/c3ccc(NC(=O)c4ccc(SC)c(S(=O)(=O)N5CCOCC5)c4)cc3S(=O)(=O)OC(C)C)c(S(=O)(=O)OC(C)C)c2)cc1S(=O)(=O)N1CCOCC1` [Example 27k, 2,2′-[(E)-1,2-Ethenediyl]bis[5-[[4-(methylthio)-3-(4-morpholinylsulfonyl)benzoyl]amino]benzenesulfonic Acid], Bis(1-methylethyl) Ester], in assay [1] (ip), the “IC50 (mg/Kg) ovaries” value is 1.1 mg/kg and the “IC50 (mg/Kg) uterus” value is 0.5 mg/kg. In assay [1] (po), the “IC50 (mg/Kg) ovaries” value turned out to be 4.8 mg/kg and the “IC50 (mg/Kg) uterus” value worked out at 1.9 mg/kg.

On to `CC(C)OS(=O)(=O)c1cc(NC(=O)c2ccc(S(C)(=O)=O)c([N+](=O)[O-])c2)ccc1/C=C/c1ccc(NC(=O)c2ccc(S(C)(=O)=O)c([N+](=O)[O-])c2)cc1S(=O)(=O)OC(C)C` [Example 27m, 2,2′-[(E)-1,2-Ethenediyl]bis[5-[[(4-methylsulfonyl)-3-(nitro)-benzoyl]amino]benzenesulfonic Acid], Bis(1-methylethyl) Ester], for which, in assay [1] (po), the “IC50 (mg/Kg) ovaries” value stood at 8.4 mg/kg and the “IC50 (mg/Kg) uterus” value was 7.9 mg/kg.

In the case of `CCS(=O)(=O)c1ccc(C(=O)Nc2ccc(/C=C/c3ccc(NC(=O)c4ccc(S(=O)(=O)CC)cc4)cc3S(=O)(=O)OC(C)C)c(S(=O)(=O)OC(C)C)c2)cc1` [Example 27z, 2,2′-[(E)-1,2-Ethenediyl]bis[5-[[4-(ethylsulfonyl)benzoyl]amino]benzenesulfonic acid], Bis(1-methylethyl) Ester], in assay [1] (po), the “IC50 (mg/Kg) ovaries” value is over 10 mg/kg and the “IC50 (mg/Kg) uterus” value was determined as 10 mg/kg.

In the case of `O=C(O)C=CCS(=O)(=O)c1cccc(C(=O)Nc2ccc(C=Cc3ccc(NC(=O)c4cccc(S(=O)(=O)CC=CC(=O)O)c4)cc3S(=O)(=O)O)c(S(=O)(=O)O)c2)c1` [Example 36c, 4-{3-[4-(2-{4-[3-(3-Carboxy-prop-2-ene-1-sulfonyl)-benzoylamino]-2-sulfo-phenyl}-vinyl)-3-sulfo-phenylcarbomoyl]-benzenesulfonyl}-but-2-enoic Acid], the IC50 at FSH receptor [2] stood at 5.4 µM; on FSH receptor [3], 9.5 µM.

Consider `O=C(CS(=O)(=O)c1ccc(C(=O)Nc2ccc(/C=C/c3ccc(NC(=O)c4ccc(S(=O)(=O)CC(=O)NCCO)cc4)cc3S(=O)(=O)O)c(S(=O)(=O)O)c2)cc1)NCCO` [Example 37a, 5-[[4-[[2-[(2-Hydroxyethyl)amino]-2-oxoethyl]sulfonyl]benzoyl]amino]-2-[(E)-2-[4-[[4-[[2-[(2-hydroxyethyl)amino]-2-oxoethyl]sulfonyl]benzoyl]amino]-2-sulfo-phenyl]ethenyl]benzenesulfonic Acid], for which the results for the IC50 on FSH receptor [2] and at FSH receptor [3] were 2 µM and 2.1 µM, respectively.

Turning to `NC(=O)CS(=O)(=O)c1ccc(C(=O)Nc2ccc(/C=C/c3ccc(NC(=O)c4ccc(S(=O)(=O)CC(N)=O)cc4)cc3S(=O)(=O)O)c(S(=O)(=O)O)c2)cc1` [Example 37b, 5-[[4-[(2-Amino-2-oxoethyl)sulfonyl]benzoyl]amino]-2-[(E)-2-[4-[[4-[(2-amino-2-oxoethyl)sulfonyl]benzoyl]amino]-2-sulfophenyl]ethenyl]-benzenesulfonic Acid], the IC50 on FSH receptor [2] is 2.9 µM; at FSH receptor [3], 1.2 µM.

In the case of `COCCOc1ccc(C(=O)Nc2ccc(/C=C/c3ccc(NC(=O)c4ccc(OC)c(S(=O)(=O)N5CCOCC5)c4)cc3S(=O)(=O)O)c(S(=O)(=O)O)c2)cc1` [Example 42, 5-[[4-(2-Methoxyethoxy)benzoyl]amino]-2-[(E)-2-[4-[[4-methoxy-3-(4-morpholinylsulfonyl)benzoyl]amino]-2-sulfo-phenyl]ethenyl]benzenesulfonic Acid], the IC50 came out at 6.9 µM on FSH receptor [2] and 2.7 µM at FSH receptor [3].

As for `COc1ccc(C(=O)Nc2ccc(CCc3ccc(NC(=O)c4ccc(OC)c(S(=O)(=O)N5CCCCC5)c4)cc3S(=O)(=O)O)c(S(=O)(=O)O)c2)cc1S(=O)(=O)N1CCCCC1` [Example 43b], the IC50 came out at 17 µM at FSH receptor [2] and 28 µM on FSH receptor [3].

For `O=C(Nc1ccc(CCc2ccc(NC(=O)c3cccc(S(=O)(=O)N4CCOCC4)c3)cc2S(=O)(=O)O)c(S(=O)(=O)O)c1)c1cccc(S(=O)(=O)N2CCOCC2)c1` [Example 43d], the IC50 came to 12 µM at FSH receptor [2] and 13 µM at FSH receptor [3].

For `COCCOc1ccc(C(=O)Nc2ccc(CCc3ccc(NC(=O)c4ccc(OCCOC)c(S(=O)(=O)N5CCOCC5)c4)cc3S(=O)(=O)O)c(S(=O)(=O)O)c2)cc1S(=O)(=O)N1CCOCC1` [Example 43f, 2,2′-(1,2-Ethanediyl)bis[5-[[4-(2-methoxyethoxy)-3-(4-morpholinylsulfony)benzoyl]amino]benzenesulfonc Acid]], the 50% inhibitory concentration (IC50) at FSH receptor [2] amounted to 5 µM; at FSH receptor [3] it was 6.4 µM.

`COc1ccc(C(=O)Nc2ccc(CCc3ccc(NC(=O)c4ccc(OC)c(S(=O)(=O)N5CCCC5)c4)cc3S(=O)(=O)O)c(S(=O)(=O)O)c2)cc1S(=O)(=O)N1CCCC1` [Example 43g, 2,2′-(1,2-Ethanediyl)bis[5-[[4-methoxy-3-(1-pyrrolidinylsulfonyl)benzoyl]amino]benzenesulfonic Acid]]: the half-maximal inhibitory concentration (IC50) was found to be 7 µM at FSH receptor [2] and 12 µM on FSH receptor [3].

For `COCCOc1ccc(C(=O)Nc2ccc(CCc3ccc(NC(=O)c4ccc(OC)c(S(=O)(=O)N5CCOCC5)c4)cc3S(=O)(=O)O)c(S(=O)(=O)O)c2)cc1` [Example 43h, 5-[[4-(2-Methoxyethoxy)benzoyl]amino]-2-[2-[4-[[4-methoxy-3-(4-morpholinylsulfonyl)benzoyl]amino]-2-sulfophenyl]ethyl]benzenesulfonic Acid], the IC50 on FSH receptor [2] and at FSH receptor [3] was 12 µM in each case.

The term IC50 denotes the point on the concentration scale where inhibition reaches its midpoint.
